According to patent US20240132513A1, “BENZAZEPINE DERIVATIVES, COMPOSITIONS, AND METHODS FOR TREATING COGNITIVE IMPAIRMENT” (AGENEBIO, INC., priority 2022, published 2024):
Like-named read-outs stand apart in the source and are kept apart here.

Columns and labels:
[1] = target: α5β3γ2 GABAA R (Homo sapiens, UniProt P18507+P31644); assay: Binding activity on GABAA R: inhibition of [3H]Ro15-1788 binding, α5 containing receptor
Procedure, shortened: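 Membranes from dexamethasone-induced (0.5 μM, 1 day) Ltk cells stably expressing α5β3γ2 receptors, 0.2 mg/ml protein, incubated with [3H]Ro15-1788 for 1 h at 4 °C in 50 mM KH2PO4/1 mM EDTA/0.2 M KCl, pH 7.4. Nonspecific binding with 10 μM diazepam; bound ligand by GF/B filtration and scintillation counting, triplicates.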

[2] = target: T1, GABAA R (α5β2γ2) (Homo sapiens, UniProt P18507+P31644); assay: Positive allosteric modulator activity: potentiation of EC20 GABA current in oocytes; format: cell-based
T1 construct: expressed in transfected cells
T1 sequence (P31644 32-462): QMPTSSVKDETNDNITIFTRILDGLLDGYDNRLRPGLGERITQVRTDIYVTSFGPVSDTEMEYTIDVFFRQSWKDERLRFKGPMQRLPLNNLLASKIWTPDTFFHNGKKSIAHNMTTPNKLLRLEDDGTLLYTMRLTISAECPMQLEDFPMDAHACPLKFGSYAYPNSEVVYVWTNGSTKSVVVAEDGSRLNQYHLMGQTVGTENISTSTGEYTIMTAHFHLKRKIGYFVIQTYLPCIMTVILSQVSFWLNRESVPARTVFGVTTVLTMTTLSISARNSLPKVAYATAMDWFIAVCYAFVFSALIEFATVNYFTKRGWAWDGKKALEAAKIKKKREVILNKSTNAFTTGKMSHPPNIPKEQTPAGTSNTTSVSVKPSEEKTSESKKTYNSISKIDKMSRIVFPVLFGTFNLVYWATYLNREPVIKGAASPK
T1 sequence (P47870 25-512 partner limits assumed): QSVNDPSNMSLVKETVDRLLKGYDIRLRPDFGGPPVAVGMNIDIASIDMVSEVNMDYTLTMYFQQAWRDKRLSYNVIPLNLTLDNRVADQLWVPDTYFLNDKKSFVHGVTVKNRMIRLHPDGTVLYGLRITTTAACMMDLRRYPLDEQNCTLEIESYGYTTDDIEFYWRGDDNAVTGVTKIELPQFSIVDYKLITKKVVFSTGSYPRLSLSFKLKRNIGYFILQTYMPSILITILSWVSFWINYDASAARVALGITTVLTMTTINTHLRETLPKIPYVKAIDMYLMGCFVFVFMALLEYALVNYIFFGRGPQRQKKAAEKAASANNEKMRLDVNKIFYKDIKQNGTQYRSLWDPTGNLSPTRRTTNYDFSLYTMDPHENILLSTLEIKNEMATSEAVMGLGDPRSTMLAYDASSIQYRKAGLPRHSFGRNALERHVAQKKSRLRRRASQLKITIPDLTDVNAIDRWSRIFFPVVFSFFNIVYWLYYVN
T1 sequence (P18507 40-475): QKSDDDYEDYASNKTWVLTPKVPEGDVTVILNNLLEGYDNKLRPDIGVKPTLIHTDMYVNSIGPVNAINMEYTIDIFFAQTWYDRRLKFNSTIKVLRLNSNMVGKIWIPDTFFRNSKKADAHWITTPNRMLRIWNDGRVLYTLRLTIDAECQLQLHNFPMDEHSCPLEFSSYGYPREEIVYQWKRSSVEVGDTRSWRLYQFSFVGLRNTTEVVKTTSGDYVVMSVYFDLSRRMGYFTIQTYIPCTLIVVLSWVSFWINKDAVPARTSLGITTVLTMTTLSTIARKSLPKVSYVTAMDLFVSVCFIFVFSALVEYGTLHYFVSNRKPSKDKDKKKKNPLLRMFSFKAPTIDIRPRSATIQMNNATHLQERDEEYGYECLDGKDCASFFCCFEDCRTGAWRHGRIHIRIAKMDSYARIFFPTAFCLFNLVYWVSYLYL
Procedure, shortened: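 Xenopus oocytes injected with 1 ng α5:β2:γ2 cDNA (1:1:10 by weight), tested day 2, voltage-clamped at −60 mV under MBS superfusion.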

[3] = read-out: GABA α5 Functional Data: potentiation, @ 100 nM, EC20 GABA, ranges of the column heads
[4] = ranges of the column heads, [3H]Ro15-1788, Ltk cell membranes
[5] = read-out: GABA α5 Functional Data: potentiation

Chain of α5β3γ2 GABAA R (P31644 32-462): as the sequence (P31644 32-462) above
Chain of α5β3γ2 GABAA R (P28472 26-473 partner): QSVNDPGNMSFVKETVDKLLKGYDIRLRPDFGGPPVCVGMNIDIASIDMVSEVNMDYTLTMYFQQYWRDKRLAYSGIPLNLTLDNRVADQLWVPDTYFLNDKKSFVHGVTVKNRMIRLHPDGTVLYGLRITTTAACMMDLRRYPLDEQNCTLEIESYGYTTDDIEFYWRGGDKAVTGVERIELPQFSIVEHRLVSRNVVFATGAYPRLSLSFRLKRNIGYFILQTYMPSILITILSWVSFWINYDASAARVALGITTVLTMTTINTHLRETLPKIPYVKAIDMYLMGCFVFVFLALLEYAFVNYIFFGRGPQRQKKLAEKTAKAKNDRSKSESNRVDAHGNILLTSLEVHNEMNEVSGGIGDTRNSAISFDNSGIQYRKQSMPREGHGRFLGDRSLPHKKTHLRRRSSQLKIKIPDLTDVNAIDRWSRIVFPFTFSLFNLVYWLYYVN
Chain of α5β3γ2 GABAA R (P18507 40-475): as the sequence (P18507 40-475) above

| SMILES | Ki [1] | activation at 0.1 µM [2, 3] | Ki [1, 4] | activation at 0.1 µM [2, 5] |
| --- | --- | --- | --- | --- |
| COc1ccc2c(c1)-c1nn(C)cc1Cc1c(-c3nc(C(C)C)no3)ncn1-2 [Compound 46] | < 100 nM | 5 to 20% | – | – |
| COc1ccc2c(c1)-c1nn(C)cc1Cc1c(-c3nnc(C(F)(F)F)o3)ncn1-2 [Compound 289] | < 100 nM | 5 to 20% | – | – |
| CC(C)n1cc2c(n1)-c1cc(Cl)ccc1-n1cnc(-c3noc(C4CC4)n3)c1C2 [Compound 149] | < 100 nM | 20 to 50% | – | – |
| CCn1cc2c(n1)-c1cc(Cl)ccc1-n1cnc(-c3nc(CN4CCCC4)no3)c1C2 [Compound 266] | – | 5 to 20% | < 100 nM | – |
| COc1ccc2c(c1)-c1nn(C)cc1Cc1c(-c3nc(C)no3)ncn1-2 [Compound 20] | < 100 nM | 5 to 20% | – | – |
| CC(C)c1noc(-c2ncn3c2Cc2cn(CC4CCOC4)nc2-c2cc(Cl)ccc2-3)n1 (stereo not drawn) [Compound 201] | < 100 nM | 5 to 20% | – | – |
| Cn1cc2c(n1)-c1cc(Cl)ccc1-n1cnc(-c3nc(C4CC4)no3)c1C2 [Compound 127] | < 100 nM | 20 to 50% | – | – |
| COc1ccc2c(c1)-c1nn(C)cc1Cc1c(-c3noc(C4CC4)n3)ncn1-2 [Compound 132] | – | – | < 100 nM | 20 to 50% |
| COc1ccc2c(c1)-c1nn(C)cc1Cc1c(-c3nc([C@@H]4CCOC4)no3)ncn1-2 [Compound 260] | < 100 nM | 5 to 20% | – | – |
| COc1ccc2c(c1)-c1n[nH]cc1Cc1c(-c3noc(C(C)(C)OC)n3)ncn1-2 [Compound 181] | – | – | < 100 nM | > 50% |
| Cc1noc(-c2ncn3c2Cc2cn(C)nc2-c2cc(Cl)ccc2-3)n1 [Compound 121] | < 100 nM | 20 to 50% | – | – |
| CCn1cc2c(n1)-c1cc(Cl)ccc1-n1cnc(-c3nc(C(C)C)no3)c1C2 [Compound 104] | – | – | < 100 nM | 5 to 20% |
| COc1ccc2c(c1)-c1nn(C)cc1Cc1c(-c3nnc(C)o3)ncn1-2 [Compound 290] | < 100 nM | 20 to 50% | – | – |
| Cc1noc(-c2ncn3c2Cc2cn(C(C)C)nc2-c2cc(Cl)ccc2-3)n1 [Compound 160] | < 100 nM | 20 to 50% | – | – |
| COc1ccc2c(c1)-c1nn(CC3CCOC3)cc1Cc1c(-c3nc(C(C)C)no3)ncn1-2 (stereo not drawn) [Compound 245] | < 100 nM | 20 to 50% | – | – |
| Cn1cc2c(n1)-c1cc(Cl)ccc1-n1cnc(-c3noc(C(F)(F)F)n3)c1C2 [Compound 144] | < 100 nM | 20 to 50% | – | – |
| COCC1COC(c2ncn3c2Cc2cn(C)nc2-c2cc(Cl)ccc2-3)=N1 (stereo not drawn) [Compound 189] | < 100 nM | 20 to 50% | – | – |
| CN(C)Cc1coc(-c2ncn3c2Cc2cn(C)nc2-c2cc(Cl)ccc2-3)n1 [Compound 277] | < 100 nM | 20 to 50% | – | – |
| CCn1cc2c(n1)-c1cc(Cl)ccc1-n1cnc(-c3noc(COC4CCCC4)n3)c1C2 [Compound 194] | < 100 nM | 20 to 50% | – | – |
| Clc1ccc2c(c1)-c1nn(Cc3ccccn3)cc1Cc1c(-c3nc(C4CC4)no3)ncn1-2 [Compound 135] | < 100 nM | 5 to 20% | – | – |

| SMILES | Ki [1] | activation at 0.1 µM [2, 3] | Ki [1, 4] | activation at 0.1 µM [2, 5] |
| --- | --- | --- | --- | --- |
| COc1ccc2c(c1)-c1[nH]ncc1Cc1c(-c3nc(C(F)(F)F)no3)ncn1-2 [Compound 45] | < 100 nM | 20 to 50% | – | – |
| COCCn1cc2c(n1)-c1cc(OC)ccc1-n1cnc(-c3noc(COCC(F)(F)F)n3)c1C2 [Compound 313] | < 100 nM | 5 to 20% | – | – |
| COc1ccc2c(c1)-c1nn(C)cc1Cc1c(-c3noc([C@@H]4CCCO4)n3)ncn1-2 [Compound 259] | < 100 nM | 5 to 20% | – | – |
| COc1ccc2c(c1)-c1nn(C)cc1Cc1c(-c3noc(C)n3)ncn1-2 [Compound 131] | < 100 nM | 5 to 20% | – | – |
| CCn1cc2c(n1)-c1cc(Cl)ccc1-n1cnc(-c3noc(C4CC4)n3)c1C2 [Compound 176] | – | – | < 100 nM | 5 to 20% |
| COc1ccc2c(c1)-c1nn(C3CCOC3)cc1Cc1c(-c3nc(C(F)(F)F)no3)ncn1-2 (stereo not drawn) [Compound 263] | < 100 nM | 5 to 20% | – | – |
| Cn1cc2c(n1)-c1cc(Cl)ccc1-n1cnc(-c3cnn(Cc4ccccn4)c3)c1C2 [Compound 190] | < 100 nM | 20 to 50% | – | – |
| COc1ccc2c(c1)-c1nn(CC3CCCO3)cc1Cc1c(-c3nc(C(C)C)no3)ncn1-2 (stereo not drawn) [Compound 231] | < 100 nM | 5 to 20% | – | – |
| CC(C)c1noc(-c2ncn3c2Cc2cn(Cc4cccnc4)nc2-c2cc(Cl)ccc2-3)n1 [Compound 98] | – | – | < 100 nM | 5 to 20% |
| COc1ccc2c(c1)-c1nn(CC3CC3)cc1Cc1c(-c3nc(C4CC4)no3)ncn1-2 [Compound 171] | < 100 nM | 5 to 20% | – | – |
| CCn1cc2c(n1)-c1cc(OC)ccc1-n1cnc(-c3noc(COCC(F)(F)F)n3)c1C2 [Compound 254] | < 100 nM | 20 to 50% | – | – |
| CC(C)c1noc(-c2ncn3c2Cc2cn(Cc4ccccc4)nc2-c2cc(Cl)ccc2-3)n1 [Compound 96] | – | – | < 100 nM | 5 to 20% |
| Cc1nc(-c2ncn3c2Cc2cn(C(C)C)nc2-c2cc(Cl)ccc2-3)no1 [Compound 147] | – | – | < 100 nM | 5 to 20% |
| Clc1ccc2c(c1)-c1[nH]ncc1Cc1c(C#Cc3cccnc3)ncn1-2 [Compound 64] | < 100 nM | > 50% | – | – |
| COc1ccc(Cn2ncc3c2-c2cc(OC)ccc2-n2cnc(-c4noc(COCC(F)(F)F)n4)c2C3)cc1 [Compound 173] | < 100 nM | 5 to 20% | – | – |
| CCn1cc2c(n1)-c1cc(OC)ccc1-n1cnc(-c3noc(C(C)(C)OC)n3)c1C2 [Compound 255] | < 100 nM | 5 to 20% | – | – |
| Clc1ccc2c(c1)-c1nn(CC3CC3)cc1Cc1c(-c3nc(C4CC4)no3)ncn1-2 [Compound 129] | < 100 nM | 20 to 50% | – | – |
| COc1ccc2c(c1)-c1c(cnn1C)Cc1c(-c3noc(COCC(F)(F)F)n3)ncn1-2 [Compound 184] | – | – | < 100 nM | > 50% |
| COc1ccc2c(c1)-c1nn(CC3CCCO3)cc1Cc1c(-c3noc(C4COC4)n3)ncn1-2 (stereo not drawn) [Compound 294] | < 100 nM | > 50% | – | – |
| Cn1cc2c(n1)-c1cc(Cl)ccc1-n1cnc(-c3nc([C@@H]4CCOC4)no3)c1C2 [Compound 261] | < 100 nM | 5 to 20% | – | – |

| SMILES | Ki [1] | activation at 0.1 µM [2, 3] | Ki [1, 4] | activation at 0.1 µM [2, 5] |
| --- | --- | --- | --- | --- |
| COc1ccc2c(c1)-c1nn(C)cc1Cc1c(-c3noc([C@H]4CCOC4)n3)ncn1-2 [Compound 257] | < 100 nM | 20 to 50% | – | – |
| COc1ccc2c(c1)-c1nn(C)cc1Cc1c(-c3noc(COC4CCCC4)n3)ncn1-2 [Compound 297] | < 100 nM | 5 to 20% | – | – |
| COc1ccc2c(c1)-c1nn(C)cc1Cc1c(-c3noc(C4CCOC4)n3)ncn1-2 (stereo not drawn) [Compound 136] | < 100 nM | 20 to 50% | – | – |
| COc1ccc2c(c1)-c1nn(C)cc1Cc1c(-c3noc(COC(C)(C)C)n3)ncn1-2 [Compound 296] | < 100 nM | 20 to 50% | – | – |
| COc1ccc2c(c1)-c1nn(Cc3ccccc3)cc1Cc1c(-c3cnn(Cc4ccccc4)c3)ncn1-2 [Compound 76] | – | – | < 100 nM | 20 to 50% |
| COc1ccc2c(c1)-c1nn(CC3CCCO3)cc1Cc1c(-c3nc(C(F)(F)F)no3)ncn1-2 (stereo not drawn) [Compound 264] | < 100 nM | 5 to 20% | – | – |
| COc1ccc2c(c1)-c1[nH]ncc1Cc1c(-c3noc(C(F)(F)F)n3)ncn1-2 [Compound 87] | – | – | < 100 nM | 20 to 50% |
| COCc1nc(-c2ncn3c2Cc2cn(CC4CCCO4)nc2-c2cc(OC)ccc2-3)no1 (stereo not drawn) [Compound 293] | < 100 nM | 20 to 50% | – | – |
| Clc1ccc2c(c1)-c1nn(CC3CCCO3)cc1Cc1c(-c3cnn(Cc4ccccc4)c3)ncn1-2 (stereo not drawn) [Compound 230] | < 100 nM | 5 to 20% | – | – |
| COC(C)(C)c1nc(-c2ncn3c2Cc2cn(C)nc2-c2cc(Cl)ccc2-3)no1 [Compound 214] | < 100 nM | > 50% | – | – |
| Cc1nc(-c2ncn3c2Cc2cn(C)nc2-c2cc(Cl)ccc2-3)no1 [Compound 140] | < 100 nM | 5 to 20% | – | – |
| CCn1cc2c(n1)-c1cc(Cl)ccc1-n1cnc(-c3noc(C(C)C)n3)c1C2 [Compound 175] | – | – | < 100 nM | 20 to 50% |
| CCOCc1nc(-c2ncn3c2Cc2cn(C)nc2-c2cc(OC)ccc2-3)no1 [Compound 137] | < 100 nM | 20 to 50% | – | – |
| CC(C)c1noc(-c2ncn3c2Cc2cn(Cc4ccccn4)nc2-c2cc(Cl)ccc2-3)n1 [Compound 99] | < 100 nM | – | – | 20 to 50% |
| COc1ccc2c(c1)-c1nn(CC3COC3)cc1Cc1c(-c3noc(COCC(F)(F)F)n3)ncn1-2 [Compound 314] | < 100 nM | 5 to 20% | – | – |
| COc1ccc2c(c1)-c1c(cnn1CC1CCCO1)Cc1c(-c3nc(C(C)C)no3)ncn1-2 (stereo not drawn) [Compound 244] | < 100 nM | 5 to 20% | – | – |
| COc1ccc2c(c1)-c1nn(C)cc1Cc1c(-c3noc([C@@H]4CCOC4)n3)ncn1-2 [Compound 256] | < 100 nM | 5 to 20% | – | – |
| COc1ccc2c(c1)-c1nn(Cc3ccc(F)cc3)cc1Cc1c(-c3nc(C)no3)ncn1-2 [Compound 23] | < 100 nM | 5 to 20% | – | – |
| COCc1coc(-c2ncn3c2Cc2cn(C)nc2-c2cc(Cl)ccc2-3)n1 [Compound 284] | – | – | < 100 nM | > 50% |
| Cn1cc2c(n1)-c1cc(Cl)ccc1-n1cnc(-c3cnn(Cc4cccnc4)c3)c1C2 [Compound 208] | < 100 nM | 5 to 20% | – | – |
